Experimental data published in ChEMBL document CHEMBL4017479, “Design, synthesis and anticancer activity of novel nopinone-based thiosemicarbazone derivatives” (Bioorg Med Chem Lett, 2017).

Key:
[1] = test system: MDA-MB-231; assay: cells; settings: Homo sapiens, MDA-MB-231, 72 h
Description: Cytotoxicity against human MDA-MB-231 cells after 72 hrs by MTT assay

[2] = test system: HeLa; assay: cells; settings: Homo sapiens, 72 h
Description: Cytotoxicity against human HeLa cells after 72 hrs by MTT assay

[3] = test system: SMMC-7721; assay: Cytotoxicity against human SMMC7721 cells after 72 hrs by MTT assay; type: functional, cell-based; settings: SMMC-7721, 72 h
[4] = Cytotoxicity against HLF1 cells after 72 hrs by MTT assay; type: functional, cell-based; settings: Homo sapiens, HLF1, 72 h

IC50 [1]: 29.3 µM
IC50 [2]: 7.89 µM
SMILES: COc1cc([C@@H]2c3cc4c(cc3[C@@H](O[C@@H]3O[C@@H]5CO[C@@H](C)O[C@H]5[C@H](O)[C@H]3O)[C@H]3COC(=O)[C@H]23)OCO4)cc(OC)c1O [ETOPOSIDE]
IC50 [3]: 40.4 µM
IC50 [4]: > 40 µM
